Data from patent US12054449B2, “Phenylcarbamate crystalline form and method for manufacturing the same” (BIO-PHARM SOLUTIONS CO., LTD., priority 2021, dated 2024).
Values after ≈ are worked out from the molar mass of the structure shown. “Also recorded” adds a separate entry of the source. Where two headings read alike, the source gives them in different places.

What was measured:
Type in all cases: physicochemical
[1] = Change of crystalline form on standing or drying (XRPD); settings: left overnight on the XRPD disc under laboratory conditions
Description: XRPD patterns were detected by CuKα irradiation (30 kV, 10 mA) using a Bruker AXS D2 diffractometer. The analysis was performed using θ-θ geometry and a LynxEye detector at 5 to 42° 2θ with a step size of 0.024° 2θ at 0.1 sec/step.
Samples were run at ambient conditions and prepared as flat specimens using powder received without grinding. About 1 to 2 mg of the sample was lightly pressed on a silicon wafer to obtain a flat surface.

[2] = Storage under stress humidity (40° C./75% RH or RT/97% RH, 7 days) with XRPD, UPLC, 1H NMR
[3] = Competitive slurry experiment for Pattern 1, Pattern 3, Pattern 6 and Pattern 11
Description: A mixture of Pattern 1 and Pattern 3 (ED01748-028-003-00, 10 mg each) was dispensed into four vials, and Pattern 6 (ED01748-034-002-00, 5 mg) and Pattern 11 (ED01748-037-002-00, 5 mg) were added to respective vials. Each sample was treated with 300 μL of a filtered saturated solution of Pattern 1 (ED01748-006-001-00) prepared in DIPE or heptane. The resulting slurries were stirred at room temperature and 50° C. A small sample was periodically removed and analyzed by)(RFD, followed by monitoring as described in the following table.
After analysis, the solid was returned to the vial, and a saturated solution was additionally injected as needed to maintain the slurries. After 25 days, the purity of the solid material obtained in the heptane experiment was confirmed by UPLC, and no significant decrease in purity was shown by UPLC.

[4] = Competitive slurry experiment for Pattern 1 and Pattern 3; settings: competitive slurries in DIPE and heptane, room temperature and 50° C.
Description: To investigate the relative thermodynamic stability of various crystalline form patterns at room temperature and 50° C., competitive slurry experiments were carried out.
A mixture of Pattern 1 and Pattern 3 (ED01748-028-003-00, 4×20 mg) was dispensed into vials. They were treated with 250 μL of a saturated solution of Pattern 1 (ED01748-006-001-00) in DIPE or heptane (50 mg of ED01748-006-001-00 was treated with DIPE or heptane and heated at 50° C., a portion was removed as needed, and the resulting product was filtered through a 0.45 μm syringe filter, thereby forming a slurry). The produced slurry was stirred at room temperature or 50° C. After analysis, the solid was returned to the vial, and an additional saturated solution was added as needed to maintain the slurry. After 4 days, the purity of the material was confirmed by UPLC.

[5] = Melting and cooling of Pattern 1 (DSC A experiment; melting and rapid cooling), degradation by 1H NMR/UPLC
Description: A portion of ED01748-006-001-00 was heated in a differential scanning calorimeter at 10° C./min to 110° C., and then cooled to 30° C. at 50° C./min. The contents of a DSC pan were analyzed by ^1H NMR.
Each (about 10 mg) of two ED01748-006-001-00 samples was put into a vial, and then into a drying pistol which had been preheated to 110° C. for 10 minutes under ambient pressure. The molten sample was removed, followed by rapid cooling with dry ice. The glass material from the first sample was rapidly crystallized by impacting a part that characterized it. As a result of XRPD analysis, the glass material was identified as Pattern 1 (FIG. 7).

[6] = Thermodynamic solubility by UPLC in biological media (FaSSGF, FaSSIF); settings: thermodynamic from solid, 37° C., 24 h orbital shaker, all solids dissolved
Description: A thermodynamic solubility in water was determined by providing a suitable concentration of compound prepared by suspending a sufficient compound in water or buffer according to estimated solubilities of the medium and the compound. Quantification was done by UPLC with reference to a standard calibration curve. A solubility was calculated with QuanLynx using a peak area determined by the integration of a peak found at the same retention time as the main peak in the standard injection.
To measure the solubility of ED01748-006-001-00 Pattern 1, experiments were carried out in biological media (Fasted simulated gastric fluid (FaSSGF) and Fasted simulated intestinal fluid (FaSSIF)) at 37° C. […] each of samples was dispersed into each of four vials, 1 mL each of FaSSGF and FaSSIF was added to each of the two vials and incubated in an orbital shaker for 24 hours. After incubation, all solids in each sample were dissolved, and the solubility was measured as follows.

[7] = 110° C. for 10 minutes, rapid cooling with dry ice

- Form by XRPD after being left overnight [1]: Pattern 3
- 1H NMR post storage at 40° C./75% RH for 7 days ([2]; 40° C./75% RH): Consistent with structure
- UPLC purity post storage at 40° C./75% RH for 7 days ([2]; 40° C./75% RH, initial UPLC purity 98.6%): 97.4%
- XRPD post storage at 40° C./75% RH for 7 days (change in form) ([2]; 40° C./75% RH, listed as Pattern 1): no morphological change
- 1H NMR purity post storage at RT/97% RH for 7 days ([2]; RT/97% RH): Consistent with structure
- UPLC purity post storage at RT/97% RH for 7 days ([2]; RT/97% RH, initial UPLC purity 98.6%): 97.7%
- XRPD post storage at RT/97% RH for 7 days (change in form) ([2]; RT/97% RH, listed as Pattern 1): no morphological change
- Decomposition after melting and rapid cooling (1H NMR or UPLC) [5, 7]: not significantly decomposed
- UPLC purity after melting and rapid cooling [5, 7]: 98.7%
- Degradation after melting and cooling (1H NMR) ([5]; heated 10° C./min to 110° C., cooled to 30° C. at 50° C./min): no degradation or migration
- solubility at 24 h ([6]; fasted simulated gastric fluid (FaSSGF), fassgf or other biorelevant, fasted simulated gastric fluid, read-out: FaSSGF solubility after 24 h): 16.8 mg/mL (≈ 73.3 mM)
- solubility at 24 h ([6]; fasted simulated intestinal fluid (FaSSIF), fassif, fasted simulated intestinal fluid, read-out: FaSSIF solubility after 24 h): 14.1 mg/mL (≈ 61.2 mM)
Structure (SMILES): C[C@H](OC(N)=O)[C@@H](O)c1ccccc1Cl [ED01748-006-001-00, 1-(2-chlorophenyl)-(S)-1-hydroxypropyl-(S)-2-carbamate]
- XRPD post storage at 40° C./75% RH for 7 days (change in form) ([2]; 40° C./75% RH): no change in morphology; also recorded: Shows no change in form by XRPD post storage
- XRPD post storage at RT/97% RH for 7 days (change in form) ([2]; RT/97% RH): no change in morphology; also recorded: Shows no change in form by XRPD post storage
- Relative thermodynamic stability ([3]; conclusion including heptane slurries, room temperature and 50° C., 25 days): more thermodynamically stable than Pattern 11 and Pattern 6
- Relative thermodynamic stability ([3]; in DIPE at room temperature and 50° C., after 1 day): more thermodynamically stable than Pattern 3, Pattern 6 and Pattern 11
- Relative thermodynamic stability [4]: more thermodynamically stable than Pattern 3
